Literature values in patent US20160120180A1, “COMPOSITIONS AND METHODS FOR CONTROLLING REPLANT DISEASES OF PERENNIAL CROPS” (Adjuvants Unlimited LLC, priority 2014, published 2016).

Assays:
Meloidogyne incognita [1] = conditions: in vitro
Meloidogyne incognita [2] = conditions: sprayed on plant foliage as a dilute emulsion
test plants = conditions: emulsion applied to soil at 2 and 4 grams of fatty acid per square foot
nematodes = conditions: soil-applied treatment on bermudagrass

C=CCCCCCCCCC(=O)O [undecylenic acid]
Effect on isolated egg masses (Meloidogyne incognita [1]): destroyed isolated egg masses | Systemic effects on nematodes (Meloidogyne incognita [2]): no systemic effects | Effect on test plants (phytotoxicity) (test plants): the test plants died | Nematode number (nematodes): reduction in nematode number
